From ChEMBL document CHEMBL1135223, “Peptidomimetics of efflux pump inhibitors potentiate the activity of levofloxacin in Pseudomonas aeruginosa” (2002) come the findings set out here.

In test [1] the test system is Pseudomonas aeruginosa. Nature of the test: Minimum concentration required to reduce (potentiate) the MIC of levofloxacin of Pseudomonas aeruginosa by 8-folds. Type of test: functional.
Test [2] relates to Pseudomonas aeruginosa. Description: Tested for the minimum inhibitory concentration (MIC) against growth of PAM 1032, a strain of Pseudomonas aeruginosa. Type of test: functional.

Take `NCCC[C@@H](N)C(=O)N[C@H](CCc1ccccc1)c1nc(C(=O)Nc2cnc3ccccc3c2)co1.O=C(O)C(F)(F)F.O=C(O)C(F)(F)F`: the MPC8 in test [1] stood at 5 µg/mL. Also, it took 128 µg/mL to inhibit growth in test [2] (MIC).
For `NCCC[C@@H](N)C(=O)N[C@H](CCc1ccccc1)c1nc(C(=O)Nc2ccc3ccccc3c2)co1.O=C(O)C(F)(F)F.O=C(O)C(F)(F)F` the same measures were 2.5 µg/mL and 16 µg/mL.
For `NCCC[C@@H](N)C(=O)N(CCC(=O)Nc1cnc2ccccc2c1)CCc1ccccc1.O=C(O)C(F)(F)F.O=C(O)C(F)(F)F`, in that order: 10 µg/mL and more than 512 µg/mL.
With `NCCC[C@@H](N)C(=O)N[C@H](CCc1ccccc1)C(O)c1nc2ccccc2[nH]1.O=C(O)C(F)(F)F.O=C(O)C(F)(F)F` (some centres undefined), the MPC8 in test [1] came to 20 µg/mL. Also, the MIC (in general, the smallest concentration in the dilution series that meets the test's criterion for growth inhibition) in test [2] was more than 512 µg/mL.
For `NCCC[C@@H](N)C(=O)N[C@H](CCc1ccccc1)C(O)c1nc2cc(Cl)ccc2o1.O=C(O)C(F)(F)F.O=C(O)C(F)(F)F` (some centres undefined), in that order: 5 µg/mL and 256 µg/mL.
For `NCCC[C@@H](N)C(=O)N[C@H](CCc1ccccc1)CSc1ccc(Cl)cc1.O=C(O)C(F)(F)F.O=C(O)C(F)(F)F`, in that order: 1.25 µg/mL and 64 µg/mL.
Turning to `Cc1ccc(CCN(CCC(=O)Nc2cnc3ccccc3c2)C(=O)[C@H](N)CCCN)cc1.O=C(O)C(F)(F)F.O=C(O)C(F)(F)F`, the MPC8 in test [1] was 5 µg/mL. The same molecule returned an MIC in test [2] of 256 µg/mL.
For `NCCC[C@@H](N)C(=O)N[C@H](CCc1ccccc1)C(O)c1nc2ccccc2s1.O=C(O)C(F)(F)F.O=C(O)C(F)(F)F` (some centres undefined), in that order: 20 µg/mL and 512 µg/mL.
`COc1ccc(CCN(CCC(=O)Nc2cnc3ccccc3c2)C(=O)[C@H](N)CCCN)cc1.O=C(O)C(F)(F)F.O=C(O)C(F)(F)F`: the MPC8 in test [1] came to 10 µg/mL. It took 512 µg/mL to inhibit growth in test [2] (MIC).
Turning to `Cc1cc2nc(C(O)[C@@H](CCc3ccccc3)NC(=O)[C@H](N)CCCN)oc2cc1C.O=C(O)C(F)(F)F.O=C(O)C(F)(F)F` (some centres undefined), in test [1], the MPC8 was determined as 2.5 µg/mL. This molecule also yielded an MIC in test [2] of 128 µg/mL.
For `NCCC[C@@H](N)C(=O)N[C@H](CCc1ccccc1)COc1ccc(Cl)cc1.O=C(O)C(F)(F)F.O=C(O)C(F)(F)F` the same measures were 5 µg/mL and 128 µg/mL.
For `NCCC[C@@H](N)C(O)CN[C@H](CCc1ccccc1)C(=O)Nc1cnc2ccccc2c1.O=C(O)C(F)(F)F.O=C(O)C(F)(F)F` (some centres undefined), in test [1], the MPC8 turned out to be 2.5 µg/mL. Moreover, in test [2], inhibition of growth (MIC) required 128 µg/mL.
For `NCCC[C@@H](N)C(=O)N[C@H](CCc1ccccc1)C(=O)Nc1cnc2ccccc2c1` the same measures were 10 µg/mL and more than 512 µg/mL.
For `CC(C)CCN(CCC(=O)Nc1cnc2ccccc2c1)C(=O)[C@H](N)CCCN.O=C(O)C(F)(F)F.O=C(O)C(F)(F)F`, in that order: 10 µg/mL and more than 512 µg/mL.
In the case of `NCCC[C@@H](N)C(O)CN[C@H](CCc1ccccc1)c1nc(C(=O)Nc2cnc3ccccc3c2)co1.O=C(O)C(F)(F)F.O=C(O)C(F)(F)F` (some centres undefined), the MPC8 in test [1] is 5 µg/mL. In test [2], this molecule gave an MIC of 64 µg/mL.
For `Cc1cc2nc(C(O)[C@@H](CCc3ccccc3)NCC(O)[C@H](N)CCCN)oc2cc1C.O=C(O)C(F)(F)F.O=C(O)C(F)(F)F` (some centres undefined) the same measures were 1.25 µg/mL and 128 µg/mL.
For `NCCC[C@@H](N)C(=O)N[C@H](CCc1ccccc1)C(O)c1nc2ccccc2o1.O=C(O)C(F)(F)F.O=C(O)C(F)(F)F` (some centres undefined) the same measures were 10 µg/mL and more than 512 µg/mL.
